Values of other authors, collected in patent US20080241073A1, “Polymeric Micelle Type Mri Imaging Agent” (Kanagawa Academy of Science and Technology, priority 2004, published 2008).

Conditions: Corot et al., Non-patent Literature 2

SMILES: O=C([O-])CN1CCN(CC(=O)[O-])CCN(CC(=O)O)CCN(CC(=O)[O-])CC1.[Gd+3] [DOTA-Gd]
- T1 relaxivity: 3.4
